What all share (format): functional, cell-based
One experiment has as its system MDA-MB-231. Description: Cytotoxicity against human MDA-MB-231 cells assessed as reduction in cell viability after 72 hrs by MTT assay. Particulars: MDA-MB-231, 72 h. (Tetrazolium dyes change colour on reduction, which living cells bring about.)
A further experiment relates to MGC-803. Description: Cytotoxicity against human MGC803 cells assessed as reduction in cell viability after 72 hrs by MTT assay. Particulars: MGC-803, 72 h.
A further experiment has as its system HGC-27. As to the kind of experiment: Cytotoxicity against human HGC27 cells assessed as reduction in cell viability after 72 hrs by MTT assay. The following applies: HGC-27, 72 h.
The next experiment deals with PC-3. Description: Cytotoxicity against human PC3 cells assessed as reduction in cell viability after 72 hrs by MTT assay. The following applies: PC-3, 72 h.
The subject of another experiment is MCF7. Description: Cytotoxicity against human MCF7 cells assessed as reduction in cell viability after 72 hrs by MTT assay. Particulars: MCF7, 72 h.

Our source for the IC50 values is ChEMBL document CHEMBL4393664, “2,4-Disubstituted quinazolines targeting breast cancer cells via EGFR-PI3K” (Eur J Med Chem, 2019).

The IC50 is the concentration that gives 50% inhibition.

With `FC(F)(F)c1ccc(CSc2nc(Nc3ccccc3C(F)(F)F)c3ccccc3n2)cc1`, the 50% inhibitory concentration (IC50) in the experiment with MDA-MB-231 is more than 50 µM; with MGC-803, more than 50 µM; with HGC-27 it was more than 50 µM; in the experiment with PC-3, 34.8 µM; with MCF7, more than 50 µM.
As for `CCOc1ccccc1Nc1nc(SCc2ccc(C(F)(F)F)cc2)nc2ccccc12`, the IC50 was more than 50 µM with MDA-MB-231; more than 50 µM in the experiment on MGC-803; more than 50 µM in the experiment on HGC-27; 26.2 µM with PC-3; more than 50 µM with MCF7.
Take `FC(F)(F)c1ccc(CSc2nc(Nc3ccccc3Cl)c3ccccc3n2)cc1`: the IC50 with MDA-MB-231 is more than 50 µM; in the experiment with MGC-803, more than 50 µM; in the experiment on HGC-27 it was more than 50 µM; with PC-3 it was 20.4 µM; in the experiment on MCF7, more than 50 µM.
On to `FC(F)(F)c1ccc(CSc2nc(Nc3ccc(Cl)cc3)c3ccccc3n2)cc1`, for which the IC50 was 15.1 µM in the experiment with MDA-MB-231; 16.8 µM in the experiment on MGC-803; 14.1 µM in the experiment on HGC-27; 7.11 µM with PC-3; 21.5 µM with MCF7.
The like results for `CCCCCCCCCCCCNc1nc(SCc2ccc(C(F)(F)F)cc2)nc2ccccc12` were, in that order, more than 50 µM, more than 50 µM, 38.7 µM, 26 µM and more than 50 µM.
Consider `COc1ccc(Nc2nc(SCc3ccc(C(F)(F)F)cc3)nc3ccccc23)cc1OC`, for which the IC50 in the experiment with MDA-MB-231 was 18.9 µM; in the experiment with MGC-803, 16.3 µM; in the experiment with HGC-27, 17.9 µM; in the experiment with PC-3 it was 14.1 µM; with MCF7, more than 50 µM.
For `FC(F)(F)c1ccc(CSc2nc(Nc3cccc(C(F)(F)F)c3)c3ccccc3n2)cc1` the same measures were 11.1 µM, 15.1 µM, 11.7 µM, 12.9 µM and 15.3 µM.
For `Cc1ccccc1Nc1nc(SCc2ccc(C(F)(F)F)cc2)nc2ccccc12` the same measures were 27.1 µM, 24.4 µM, 27.5 µM, 36.9 µM and 37.5 µM.
Take `COc1ccccc1Nc1nc(SCc2ccc(C(F)(F)F)cc2)nc2ccccc12`: the IC50 with MDA-MB-231 is more than 50 µM; with MGC-803, more than 50 µM; in the experiment on HGC-27 it was more than 50 µM; in the experiment on PC-3, 14.1 µM; in the experiment with MCF7, more than 50 µM.
Take `COc1cc(Nc2nc(SCc3ccc(C(F)(F)F)cc3)nc3ccccc23)cc(OC)c1OC`: the IC50 with MDA-MB-231 was more than 50 µM; in the experiment on MGC-803, 8.24 µM; in the experiment with HGC-27, 14 µM; in the experiment with PC-3, 7.37 µM; in the experiment with MCF7 it was more than 50 µM.
Take `O=[N+]([O-])c1ccc(Nc2nc(SCc3ccc(C(F)(F)F)cc3)nc3ccccc23)cc1`: the IC50 with MDA-MB-231 is 8.67 µM; in the experiment with MGC-803 it was 8.17 µM; in the experiment on HGC-27, 16.6 µM; with PC-3, 7.9 µM; in the experiment with MCF7, 17.9 µM.
Turning to `Fc1ccc(Nc2nc(SCc3ccc(C(F)(F)F)cc3)nc3ccccc23)cc1`, the IC50 with MDA-MB-231 is 15 µM; in the experiment on MGC-803, 9.62 µM; with HGC-27, 19.5 µM; with PC-3, 7.07 µM; in the experiment on MCF7, 36.3 µM.
The like results for `CCCCCCNc1nc(SCc2ccc(C(F)(F)F)cc2)nc2ccccc12` were, in that order, 20.2 µM, 13.1 µM, 23.9 µM, 19 µM and 24.3 µM.
For `COc1ccc(Nc2nc(SCc3ccc(C(F)(F)F)cc3)nc3ccccc23)cc1` the same measures were 15.7 µM, 13.8 µM, 23.5 µM, 16.7 µM and 47.2 µM.
As for `FC(F)(F)c1ccc(CSc2nc(Nc3cccc(Br)c3)c3ccccc3n2)cc1`, the IC50 in the experiment on MDA-MB-231 amounted to 22.1 µM; in the experiment with MGC-803, 23.7 µM; in the experiment on HGC-27, 18.3 µM; in the experiment on PC-3, 8.68 µM; in the experiment with MCF7, 25.6 µM.
Take `Fc1ccc(Nc2nc(SCc3ccc(C(F)(F)F)cc3)nc3ccccc23)cc1Cl`: the IC50 with MDA-MB-231 was 14.5 µM; in the experiment on MGC-803 it was more than 50 µM; in the experiment with HGC-27 it was 14.7 µM; in the experiment with PC-3, 18.6 µM; with MCF7, 23 µM.
The like results for `O=[N+]([O-])c1cccc(Nc2nc(SCc3ccc(C(F)(F)F)cc3)nc3ccccc23)c1` were, in that order, 31.5 µM, more than 50 µM, more than 50 µM, 13.5 µM and more than 50 µM.
For `Cc1ccc(Nc2nc(SCc3ccc(C(F)(F)F)cc3)nc3ccccc23)cc1` the same measures were more than 50 µM, 36.1 µM, 34.6 µM, 21.1 µM and more than 50 µM.
With `CCCCCCCCCCCCCCNc1nc(SCc2ccc(C(F)(F)F)cc2)nc2ccccc12`, the concentration for half-maximal inhibition (IC50) with MDA-MB-231, with MGC-803, in the experiment with HGC-27, in the experiment with PC-3 and in the experiment on MCF7 was more than 50 µM each time.
`FC(F)(F)c1ccc(CSc2nc(N3CCCCC3)c3ccccc3n2)cc1`: the IC50 is 28.4 µM in the experiment with MDA-MB-231; 18.6 µM in the experiment on MGC-803; more than 50 µM in the experiment on HGC-27; 25.5 µM in the experiment on PC-3; more than 50 µM with MCF7.
`COc1ccc(Nc2nc(SCc3ccc(C(F)(F)F)cc3)nc3ccccc23)c(OC)c1`: the IC50 in the experiment with MDA-MB-231 was more than 50 µM; with MGC-803 it was more than 50 µM; in the experiment with HGC-27, more than 50 µM; in the experiment on PC-3, 32.5 µM; in the experiment on MCF7, more than 50 µM.
On to `CCCCCCCCNc1nc(SCc2ccc(C(F)(F)F)cc2)nc2ccccc12`, for which the IC50 in the experiment with MDA-MB-231 was 22.3 µM; with MGC-803, 12.6 µM; in the experiment with HGC-27 it was 13.4 µM; in the experiment with PC-3, 10.5 µM; in the experiment with MCF7, 26.1 µM.
For `FC(F)(F)c1ccc(CSc2nc(Nc3cccc(Cl)c3)c3ccccc3n2)cc1`, the concentration for half-maximal inhibition (IC50) in the experiment on MDA-MB-231 worked out at 18 µM; with MGC-803, 14.6 µM; with HGC-27, 19.9 µM; with PC-3 it was 13.4 µM; with MCF7, 25.1 µM.
The like results for `CCOc1ccc(Nc2nc(SCc3ccc(C(F)(F)F)cc3)nc3ccccc23)cc1` were, in that order, 23 µM, 37 µM, 33 µM, 32 µM and more than 50 µM.
Consider `COc1cc(Nc2nc(SCc3ccc(C(F)(F)F)cc3)nc3ccccc23)cc(OC)c1`, for which the IC50 in the experiment on MDA-MB-231 was 16.1 µM; with MGC-803 it was 8.58 µM; in the experiment with HGC-27, more than 50 µM; in the experiment on PC-3, more than 50 µM; in the experiment with MCF7 it was 6.99 µM.
For `FC(F)(F)c1ccc(CSc2nc(Nc3ccccc3)c3ccccc3n2)cc1`, the IC50 worked out at 18.4 µM in the experiment with MDA-MB-231; 22.2 µM with MGC-803; 26.4 µM with HGC-27; 20 µM in the experiment with PC-3; 44 µM in the experiment with MCF7.
